Assay [1] has as its system AcylCoA:Cholesterol Acyltransferase (ACAT). Nature of the assay: AcylCoA:Cholesterol Acyltransferase (ACAT) Inhibition Assay. To be noted: for inhibition of ACAT (activity in words): preferred Fu5AH cells, compared with chloropromazine. Format: cell-based. Further details: key to inhibition of ACAT (activity in words): compounds which inhibit ACAT activity equal to, or greater than, that of chloropromazine are considered "active". An excerpt:
ACAT esterifies arterial cholesterol which is a key reaction in the development of atherosclerosis. The procedure of Bell, Can. […] In the ACAT assay it is preferred to use Fu5AH cells, see Lipids 9, 526 (1974). According to this procedure, compounds which inhibit ACAT activity equal to, or greater than, that of chloropromazine are considered "active".

Assay [2] has as its system serum and arterial cholesterol in quail fed an atherogenic diet. Nature of the assay: Antiatherosclerosis Screen in Susceptible to Experimental Atherosclerosis (SEA) Japanese Quail. It is filed as in vivo. The method, then:
While not necessary, some minor modifications for extraction of cholesterol from the artery have been made. Time are as follows: frozen arteries are homogenized in hexane/isopropanol (3/2) and the volume adjusted with Triton 100 solution (1.5% in hexane/isopropanol) to 7 ml. After standing 12 hr at 20°-25°, the supernatant, obtained by low speed centrifugation is evaporated until dry and thru the residue is suspended in 0.5 ml of 5% Triton 100 in isopropanol. This suspension is incubated for 10 min at 45° to dissolve the material. This solution as well as the diluted serum samples are analyzed for cholesterol by standard clinical chemistry analyzer methods. According to the above procedure compounds which decrease serum or arterial cholesterol >30% are considered to be "active".

The test system of assay [3] is MDA formation. Nature of the assay: Malonyldialdehyde (MDA) Formation Assay (rat brain synaptosomes). It is filed as biochemical. The settings on record: 10 min at 37°, pH 7.0; active = 50% or more at 200 μM or less.
Assay [4] deals with arachidonic acid. Nature of the assay: Arachidonic Acid Antagonism Assay (AAAA), LD50 of sodium arachidonate. It is filed as in vivo, Charles River male CF-1 mice. The settings on record: 100 mg/kg; test compound IV. Put shortly:
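Male CF-1 mice (18–22 g) received test compound IV in 1.0% Tween-80/0.1% HCl. LD50 was derived by Spearman-Karber (log dose interval 0.05, N=6), and activity was defined as LD50 elevation outside the control's 95% confidence interval.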

The test system of assay [5] is mucous secretion. Nature of the assay: Inhibition of mucous secretion assay of Johnson. The settings on record: induced mucous secretions. An excerpt:
According to this procedure compounds which inhibit or block enhancement of induced mucous secretions when tested are considered to be "active".

Assay [6] has as its system mouse head injury. Put plainly: in vivo mouse head injury procedure of Hall (1 hr neurological recovery, grip test). The settings on record: statistically significant (p<0.05).

Each structure is given as a SMILES string. Counter-ions that a name gives are not always drawn.

For `C[C@]12CCC(=O)C=C1CC[C@@H]1C2=CC[C@@]2(C)[C@H]1CC[C@]2(O)C(=O)CN1CCN(c2ccccn2)CC1.Cl` [Example 3, 17α-Hydroxy-21-[4-(2-pyridinyl)-1-piperazinyl]pregna-4,9(11)-diene-3,20-dione hydrogen chloride salt], the “inhibition of ACAT (activity in words)” value in assay [1] was “active”. In addition, in assay [2] (artery), the “reduction of arterial cholesterol (in words)” value is “demonstrates reduction of serum and arterial cholesterol”. Moreover, in assay [2] (serum), the “reduction of serum cholesterol (in words)” value is “demonstrates reduction of serum and arterial cholesterol”.
Consider `CCN(CC)c1nc(N2CCCCC2)cc(N2CCN(CC(=O)[C@@]3(O)CC[C@H]4[C@@H]5CCC6=CC(=O)CC[C@]6(C)C5=CC[C@@]43C)CC2)n1.Cl.O` [Example 17, 17α-Hydroxy-21-[4-[2-(diethylamino)-6-(1-piperidinyl)-4-pyrimidinyl]-1-piperazinyl]pregna-4,9(11)-diene-3,20-dione hydrochloride hydrate], for which the “inhibition of MDA formation (activity in words)” value in assay [3] was “demonstrate such activity”. Also, in assay [1] (5 μg/ml), the “% Inhibition of ACAT” value amounted to 32.2%. In assay [1], the “inhibition of ACAT (activity in words)” value was “active”. Further, the “% of Control LD50 100 mg/kg” value in assay [4] is given as 150%.
Take `CCN(CC)c1cc(N2CCN(CC(=O)[C@@]3(O)[C@H](C)C[C@H]4[C@@H]5CCC6=CC(=O)C=C[C@]6(C)C5=CC[C@@]43C)CC2)nc(N(CC)CC)n1.Cl.O` [Example 18, 21-[4-[2,6-Bis(diethylamino)-4-pyrimidinyl]-1-piperazinyl]-17α-hydroxy-16α-methylpregna-1,4,9(11)-triene-3,20-dione hydrochloride hydrate]: the “inhibition of ACAT (activity in words)” value in assay [1] was “active”. Further, in assay [5], the “inhibition of mucous secretion (activity in words)” value is recorded as “demonstrate such activity”.
For `CCN(CC)c1cc(N2CCN(CC(=O)[C@@]3(O)CC[C@H]4[C@@H]5CCC6=CC(=O)CC[C@]6(C)[C@H]5[C@H](O)C[C@@]43C)CC2)nc(N(CC)CC)n1.Cl.Cl` [Example 70, 21-[4-[2,6-bis(diethylamino)4-pyrimidinyl]-1-piperazinyl]-11α,17α-dihydroxypregn-4-ene-3,20-dione dihydrochloride], in assay [6], the “% Increase in 1 hr Post-Injury Grip Test Scores After 3 mg/kg” value (from here on “% Increase”) is reported as 148.3%.
For `CS(=O)(=O)O.C[C@@H]1C[C@H]2[C@@H]3CCC4=CC(=O)C=C[C@]4(C)C3=CC[C@]2(C)[C@H]1C(=O)CN1CCN(c2cc(N3CCCC3)nc(N3CCCC3)n2)CC1.O` [Example 109, 16α-Methyl-21-[4-[2,6-bis(1-pyrrolidinyl)-4-pyrimidinyl]-1-piperazinyl]-pregna-1,4,9(11)-triene-3,20-dione-monomethanesulfonate monohydrate], the “% Increase” value in assay [6] is listed as 184.4%.
As to `CCNc1cccnc1N1CCN(CC(=O)[C@H]2[C@H](C)C[C@H]3[C@@H]4CCC5=CC(=O)C=C[C@]5(C)C4=CC[C@@]32C)CC1` [Example 127, 21-[4-[3-(Ethylamino)-2-pyridinyl]piperazinyl]-16α-methylpregna-1,4,9(11)-triene-3,20-dione hydrochloride], in assay [6], the “% Increase” value came to 200.8%.

For the origin of these results see patent US5506354A, “Imidazolylpiperazinyl steroids” (The Upjohn Company, priority 1992, dated 1996).
